From publication PMC6941357, “An in vitro toolbox to accelerate anti-malarial drug discovery and development” (Malaria Journal, 2020)

Experiments:
Caco-2 cell monolayers = experiment: Bidirectional permeability across Caco-2 cell monolayers; conditions: for efflux ratio: mean B–A/A–B Papp
Summary of the method: (§1)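 Donor and acceptor concentrations measured by LC–MS to give Papp, mass balance and efflux ratio (mean B–A over A–B Papp). Media were pH 7.4 HEPES-buffered HBSS or human plasma on both sides; for plasma, Papp used the donor fraction unbound. Donor contained 0.1% v/v DMSO.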

human liver microsomes = experiment: Binding to human liver microsomes via ultracentrifugation; type: in vitro ADME; conditions: 0.4 mg/mL protein
Summary of the method: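 Unbound fraction by ultracentrifugation: Cunbound measured in protein-free supernate, Ctotal from spiked tubes held at 37 °C, sampled at start and end to check degradation. Matrix was 0.4 mg/mL human liver microsomal protein, 0.1 M phosphate pH 7.4; matrix-matched analysis against one calibration curve.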

[1] = Blood to plasma partitioning; type: in vitro ADME, human; conditions: 37 °C; for B/P (whole blood to plasma partitioning ratio): human whole blood; for blood plasma ratio at 1000 ng/mL: human, whole blood, pH 7.4, human whole blood, read-out: B/P (whole blood to plasma partitioning ratio)
Procedure: Human whole blood was collected and supplied by the Volunteer Blood Donor Registry (Clinical Translation Centre, Walter & Eliza Hall Institute of Medical Research, Parkville, Australia) and used on the day of collection. The haematocrit (Hct) was determined by centrifugation (13,000×g for 3 min using Clemets® Microhaematocrit centrifuge and Safecap® Plain Self-sealing Mylar wrapped capillary tubes) to ensure it was between 0.40 and 0.48. An aliquot was centrifuged (Heraeus, Multifuge 3 S-R; 4500×g) for 10 min to obtain plasma required for matrix matching purposes as described below.
Two aliquots of the spiked whole blood were transferred to fresh microcentrifuge tubes and maintained at 37 °C/5% CO2 in a humidified incubator. The pH was confirmed to be 7.4 ± 0.1 at the start and end of the incubation. At each time point (30 min and 4 h), one whole blood tube was removed from the incubator and mixed by gentle inversion, after which four replicate blood samples were taken and matrix matched with an equal volume of blank plasma. The remainder of the blood sample was centrifuged (Eppendorf, Mini Spin plus; 6700×g) for 2 min for the collection of 4 replicate plasma samples which were similarly matrix matched with an equal volume of blank whole blood. The 1:1 mixtures of blood/plasma were mixed, snap frozen in dry ice and stored at − 80 °C until analysis by LC–MS (Additional file 1: Table S2) against calibration standards prepared in the same mixed matrix. Any further distribution of compound into RBCs at this stage was irrelevant as the cells were lysed during the sample preparation and the total concentration in the mixed matrix was measured for both the calibration standards and samples.
The apparent whole blood-to-plasma partitioning ratio (B/P) was calculated as the ratio of the average concentration in the blood sample to that in the plasma fraction of the same whole blood sample. A standard deviation (SD) for each B/P value was calculated using the propagation of errors approach as described previously.

human plasma = conditions: methods UF, ED, EP or not described per compound, ref [6]–[22] of Additional file 1; cited from earlier work
10% FCS in DMEM = experiment: Binding in DMEM with 10% FCS via ultracentrifugation; type: in vitro ADME, calf
Procedure: (§2) Dulbecco’s Modified Eagle’s Medium (DMEM) containing GlutaMAX-I was purchased from Invitrogen (Thermo Fisher Scientific) and stored at 4 °C. Medium was prepared by adding heat inactivated foetal calf serum (FCS, final 10% v/v), penicillin (final 100 U/mL), streptomycin (final 100 µg/mL) D-glucose (final 4.0 mg/mL) and sodium pyruvate (final 0.1 mg/mL).
(§3) An ultracentrifugation method adapted from a previous publication was initially used to assess plasma protein binding and binding in the other media. […] Additional ultracentrifuge tubes containing spiked matrix were maintained at 37 °C, 5% or 10% CO2 or normal atmosphere conditions, with aliquots being taken within 0.5 h of the start and at the end of ultracentrifugation to serve as controls for the assessment of stability and to obtain a measure of the total concentration (Ctotal). Following ultracentrifugation, the pH was checked and an aliquot of protein-free supernate was taken from each ultracentrifuge tube for determination of the unbound concentration (Cunbound).
(§4) Total matrix and protein free samples were analysed using a matrix matching approach whereby each sample was mixed in a 1:1 ratio with the opposite blank medium (i.e. blank total matrix or blank protein free buffer). For example, plasma samples were mixed with blank pH 7.4 buffer whereas plasma supernatant samples were mixed with blank plasma. Each of the sample sets were then assayed against a common calibration curve prepared in a 1:1 mixture of total matrix and protein free pH 7.4 buffer. […] The standard deviation for fu was calculated using the propagation of errors approach as described previously. The potential for compound degradation was assessed by comparing the average value for Ctotal at the start and end of the experiment.

[2] = Bidirectional permeability across Caco-2 cell monolayers; conditions: human
Summary of the method: as §1

[3] = Plasma protein binding via rapid equilibrium dialysis (RED), 10% plasma; type: in vitro ADME, human; conditions: human, 10% pooled plasma (diluted 1:10), pH 7.4, RED, 10% plasma corrected for dilution; for fraction unbound at 6 h: 6 h dialysis; for fraction unbound at 24 h: presaturation of device and 24 h dialysis
Procedure: Pooled human plasma (n = 3–4 donors) was obtained by centrifugation of blood (collected by the Australian Red Cross Blood Service, Melbourne, Australia or the Volunteer Blood Donor Registry, Clinical Translation Centre, Walter & Eliza Hall Institute of Medical Research, Parkville, Australia), or sourcing pooled plasma directly from commercial sources (Innovative Research Inc, MI) and stored frozen at − 80 °C.
Plasma was diluted 1:10 with pH 7.4 phosphate buffer (prepared by mixing 0.1 M sodium dihydrogen phosphate and 0.1 M disodium hydrogen phosphate (both containing 0.04 M NaCl) to pH 7.4) and spiked with compound to achieve a total measured concentration of ~ 1000–3000 ng/mL. Diluted plasma was vortex mixed briefly and aliquots (n = 3–4) were transferred to RED (Thermo Fisher Scientific, Waltham, MA) units that were placed at 37 °C under ambient atmosphere on a plate shaker. […] At the end of the dialysis period, samples were removed from both the donor and dialysate chambers of the RED units. […] Fraction unbound values were calculated for each individual RED unit and the mean and SD calculated for n = 3–4 replicates.
Briefly, the RED device was exposed for two 30 min periods and one overnight period to fresh solutions of compound prepared in pH 7.4 buffer at approximately 10% of the total dialysis concentration. Following the preincubations, solutions were removed from the RED device and discarded. […] Samples were removed and analysed as described above.
For binding assessments using 10% plasma, the unbound fraction (fu) in neat plasma was calculated using the average values for Ctotal and Cunbound and Eq.

[4] = Binding in DMEM with 10% FCS via ultracentrifugation; type: in vitro ADME, calf; conditions: bovine, DMEM with 10% FCS, pH 7.4
Procedure: as §2, §3, §4

[5] = matrix: human plasma, corrected for fu

SMILES	A–B Papp (Caco-2 cell monolayers; [5])	B–A Papp (Caco-2 cell monolayers; [5])	Fraction unbound, HLM (human liver microsomes)	B/P (whole blood to plasma partitioning ratio) [1]	Literature fu (human plasma)	Fraction unbound, 10% FCS in DMEM (10% FCS in DMEM)	also measured
CCN(CC)CCCNc1ccnc2cc(Cl)ccc12.Cl.Cl [AQ-13]	25 ± 2.3 10^−6 cm/s	32 ± 0.8 10^−6 cm/s	0.66 ± 0.048	3.15 ± 0.20	0.45	–	efflux ratio (Caco-2 cell monolayers; matrix: human plasma): 1.2
Cc1cc(Nc2ccc(C(F)(F)F)nc2)n2nc(C(C)(F)F)nc2n1 [DSM421]	–	–	–	0.53 ± 0.03	–	0.615 ± 0.043	–
C[C@H]1c2cccc(O)c2C(=O)C2=C(O)[C@]3(O)C(=O)C(C(N)=O)=C(O)[C@@H](N(C)C)[C@@H]3[C@@H](O)[C@@H]21 [Doxycyclin]	–	–	–	–	0.12	–	Papp B→A ([2]; Caco-2, pH 7.4): 4.2 ± 0.29 ×10⁻⁶ cm/s; Papp A→B ([2]; Caco-2, pH 7.4, A–B Papp, matrix: pH 7.4 buffer): < 5 ×10⁻⁶ cm/s; A–B Papp (Caco-2 cell monolayers; matrix: pH 7.4 buffer): 3.4 ± 0.23 10^−6 cm/s; fraction unbound at 6 h [3]: 0.23 ± 0.09; fraction unbound at […], 1000 ng/mL [4]: 0.44 ± 0.07
COc1cc2[nH]c(C)c(-c3ccc(Oc4ccc(OC(F)(F)F)cc4)cc3)c(=O)c2cc1Cl [ELQ300]	> 300 10^−6 cm/s	> 300 10^−6 cm/s	0.002 ± 0.00010	0.53 ± 0.05	–	0.001 ± 0.001	–
CN(C)C[c-]1cccc1CNc1ccnc2cc(Cl)ccc12.[Fe+2].c1cc[cH-]c1 (stereo not drawn) [Ferroquine]	32 ± 6.8 10^−6 cm/s	24 ± 4.1 10^−6 cm/s	0.27 ± 0.032	1.6 ± 0.15	–	0.364 ± 0.026	efflux ratio (Caco-2 cell monolayers; matrix: human plasma): 0.8
CC(C)(C)NCc1cc(C(C)(C)C)cc(-c2cnc(C(F)(F)F)c(F)c2)c1O [JPC3210]	> 300 10^−6 cm/s	> 300 10^−6 cm/s	0.029 ± 0.0030	0.54 ± 0.04	0.024	0.227 ± 0.012	–
O=C(NCCN1CCCC1)c1cc(-c2ccc(CN3CCOCC3)cc2)nc2ccc(F)cc12 [M5717]	–	–	0.50 ± 0.041	1.3 ± 0.02	0.23	0.638 ± 0.065	A–B Papp (Caco-2 cell monolayers; matrix: pH 7.4 buffer): 34 ± 2.6 10^−6 cm/s; B–A Papp (Caco-2 cell monolayers; matrix: pH 7.4 buffer): 39 ± 7.6 10^−6 cm/s; efflux ratio (Caco-2 cell monolayers; matrix: pH 7.4 buffer): 1.1
COc1cc(N[C@H](C)CCCN)c2nccc(C)c2c1Oc1ccc(Cl)c(Cl)c1 [NPC1161B]	> 300 10^−6 cm/s	> 300 10^−6 cm/s	–	1.09 ± 0.07	–	0.043 ± 0.004	–
CC(C)(C)NCc1cc(Nc2ccnc3cc(Cl)ccc23)c2c(c1O)CCCC2 [Naphthoquine]	–	–	0.21 ± 0.015	1.14 ± 0.10	–	–	–
CCc1nc(N)nc(N)c1OCCCOc1ccccc1CCC(=O)O.Cl [P218]	–	–	0.88 ± 0.041	0.56 ± 0.03	–	0.684 ± 0.017	B–A Papp (Caco-2 cell monolayers; matrix: pH 7.4 buffer): 15 ± 1.7 10^−6 cm/s; efflux ratio (Caco-2 cell monolayers; matrix: pH 7.4 buffer): 21
Clc1ccc2c(N3CCN(CCCN4CCN(c5ccnc6cc(Cl)ccc56)CC4)CC3)ccnc2c1 [Piperaquine]	–	–	–	–	< 0.001	–	fraction unbound at 24 h [3]: 0.0003 ± 0.0001; fraction unbound at […], 1000 ng/mL [4]: 0.092 ± 0.003; blood plasma ratio at 1000 ng/mL [1]: 0.57 ± 0.05
CS(=O)(=O)O.FC1CCN(CCOc2ccc(C3CCC4(CC3)OOC3(OO4)C4CC5CC(C4)CC3C5)cc2)CC1 (stereo not drawn) [TDD-E209]	> 300 10^−6 cm/s	> 300 10^−6 cm/s	0.0003 ± 0.000010	0.51 ± 0.08	–	–	–
COc1cc(C)c2c(Oc3cccc(C(F)(F)F)c3)c(OC)cc(NC(C)CCCN)c2n1 (stereo not drawn) [Tafenoquine]	–	–	–	–	< 0.005	–	Papp A→B ([2]; Caco-2, A–B Papp, matrix: human plasma, corrected for fu): > 300 ×10⁻⁶ cm/s; fraction unbound at 6 h [3]: < 0.0007; fraction unbound at 24 h [3]: 0.0007 ± 0.00017; fraction unbound at […], 1000 ng/mL [4]: 0.038 ± 0.001; blood plasma ratio at 1000 ng/mL [1]: 1.3 ± 0.04
